Laboratory results taken from patent US20170015654A1, “PYRIDAZINE COMPOUND” (TAKEDA PHARMACEUTICAL COMPANY LIMITED, priority 2014, published 2017).

What follows are compounds tested on HCT116 cells (assay: Measurement of growth inhibitory activity using HCT116 cell). Details: Homo sapiens, HCT-116, 72 h, 1 μM compound, 3 days, CellTiter-Glo, read-out: Rate of inhibition of cell growth at compound concentration of 1 μM.
Type: cell-based
Method: Measurement of Growth Inhibitory Activity Using HCT116 Cell
Each compound was evaluated for its growth inhibitory activity against HCT116 cells (ATCC) by the following method: the HCT116 cells were inoculated at 900 cells/40 μL/well to a 384-well white plate (Greiner Bio-one) and maintained in an assay medium (RPMI medium (Wako Pure Chemical Industries, Ltd.) containing 2% fetal bovine serum, 50 units/mL penicillin and 50 μg/mL streptomycin (Invitrogen Corp.)). On the next day, the test compound dissolved in dimethyl sulfoxide (DMSO) was dispensed to the plate using TECAN D300 digital dispenser (Tecan Trading AG). Then, the concentration of DMSO in the medium was adjusted to 0.1% by the addition of DMSO. The HCT116 cells supplemented with the compound were incubated at 37° C. in a 5% CO2 environment (test compound addition group).
Also, the same reaction as above was carried out without the addition of the test compound (test compound non-addition group).
Further, the same reaction as above was carried out on condition that neither the HCT116 cells nor the test compound were added (control group).
After 3 days, 20 μL of CellTiter-Glo reagent (Promega Corp.) was added to each well, and the mixture was stirred for 10 minutes. Then, the light emission of each well was measured using ARVO MX1420 (PerkinElmer, Inc.).
The rate of inhibition of HCT116 cell growth (%) was determined according to the following calculation expression:
Rate of inhibition of cell growth=(1−(Light emission of the test compound addition group−Light emission of the control group)/(Light emission of the test compound non-addition group−Light emission of the control group))×100

In order of rising inhibition at 1 µM:
1. OCc1nnc(-c2ccc(N3CCC(c4ccc(C(F)(F)F)cc4)(C(F)(F)F)CC3)nn2)s1 [Example 113, (5-(6-(4-(Trifluoromethyl)-4-(4-(trifluoromethyl)phenyl)piperidin-1-yl)pyridazin-3-yl)-1,3,4-thiadiazol-2-yl)methanol]  84%
2. COC1(c2ccc(S(F)(F)(F)(F)F)cc2)CCN(c2ccc(-c3nnc(CO)o3)nn2)CC1 [Example 93, (5-(6-(4-Methoxy-4-(4-(pentafluorosulfanyl)phenyl)piperidin-1-yl)pyridazin-3-yl)-1,3,4-oxadiazol-2-yl)methanol]  85%
3. COC1(c2ccc(S(F)(F)(F)(F)F)cc2)CCN(c2ccc(-c3nnc(CO)s3)nn2)CC1 [Example 111, (5-(6-(4-Methoxy-4-(4-(pentafluorosulfanyl)phenyl)piperidin-1-yl)pyridazin-3-yl)-1,3,4-thiadiazol-2-yl)methanol]  86%
4. N#CC1(c2ccc(S(F)(F)(F)(F)F)cc2)CCN(c2ccc(-c3nnc(CO)o3)nn2)CC1 [Example 58, 1-(6-(5-(Hydroxymethyl)-1,3,4-oxadiazol-2-yl)pyridazin-3-yl)-4-(4-(pentafluorosulfanyl)phenyl)piperidine-4-carbonitrile]  88%
5. N#CC1(c2ccc(S(F)(F)(F)(F)F)cc2)CCN(c2ccc(-c3nnc(CO)s3)nn2)CC1 [Example 109, 1-(6-(5-(Hydroxymethyl)-1,3,4-thiadiazol-2-yl)pyridazin-3-yl)-4-(4-(pentafluorosulfanyl)phenyl)piperidine-4-carbonitrile]  88%
6. OCc1nnc(-c2ccc(N3CCC(c4ccc(C(F)(F)F)cc4)(C(F)(F)F)CC3)nn2)o1 [Example 84, (5-(6-(4-(Trifluoromethyl)-4-(4-(trifluoromethyl)phenyl)piperidin-1-yl)pyridazin-3-yl)-1,3,4-oxadiazol-2-yl)methanol]  88%
7. COC1(c2ccc(S(F)(F)(F)(F)F)cc2)CCN(c2ccc(-c3nc(CO)ns3)nn2)CC1 [Example 110, (5-(6-(4-Methoxy-4-(4-(pentafluorosulfanyl)phenyl)piperidin-1-yl)pyridazin-3-yl)-1,2,4-thiadiazol-3-yl)methanol]  89%
8. OCc1noc(-c2ccc(N3CCC(c4ccc(C(F)(F)F)cc4)(C(F)(F)F)CC3)nn2)n1 [Example 82, (5-(6-(4-(Trifluoromethyl)-4-(4-(trifluoromethyl)phenyl)piperidin-1-yl)pyridazin-3-yl)-1,2,4-oxadiazol-3-yl)methanol]  89%
9. N#CC1(c2ccc(S(F)(F)(F)(F)F)cc2)CCN(c2ccc(-c3nc(CO)ns3)nn2)CC1 [Example 108, 1-(6-(3-(Hydroxymethyl)-1,2,4-thiadiazol-5-yl)pyridazin-3-yl)-4-(4-(pentafluorosulfanyl)phenyl)piperidine-4-carbonitrile]  90%
10. OCc1nsc(-c2ccc(N3CCC(c4ccc(C(F)(F)F)cc4)(C(F)(F)F)CC3)nn2)n1 [Example 112, (5-(6-(4-(Trifluoromethyl)-4-(4-(trifluoromethyl)phenyl)piperidin-1-yl)pyridazin-3-yl)-1,2,4-thiadiazol-3-yl)methanol]  90%
